The source of these data is US20040138156A1, “Therapeutic regulation of deoxyribonuclease-1-like-3 activity” (priority 2002, published 2004).

Entries after “also recorded” stand apart in the source; their conditions may differ.

The subject of assay [1] is bone marrow-derived macrophages. The assay is described as follows: BT activity of media conditioned by Ifn-γ treated bone marrow-derived macrophages, overlaid on HeLa cells. The format is cell-based, C57BL mice. The note with it: 100 U/ml; b134: 1000 U/ml vs 100U/ml. The source says: FIG. 29. Media conditioned by Ifn-γ treated macrophages from C57BI, but not NZB/W F1 mice is able to confer an in vitro barrier to liposomal gene transduction (BT). Panel A: Media conditioned by interferon-g (Ifn-γ) treated bone marrow-derived macrophages from C57 BL confers a barrier to liposomal transfection to HeLa. […] Panel B: As interferon dose increased, the ability by C57BL macrophages to confer a barrier to transfection increased. In the absence of Ifn-γ, macrophages confer a weaker barrier. Panel C: Interferon gamma induces both DNASE activity by RDA and a DNASE band compatible with DNASE1L3 at 28 kD, plus induces a BT activity. Samples were from macrophages from two C57BL mice (B1 and B2). In the left register is pre- and post interferon RDAs, in the middle register, pre and post interferon, and in the right register are the BT assays (GFP immunoblots of tranfected HeLa cells) on HeLa cells, including HeLa cells treated directly with interferon gamma for 48 hours. Media conditioned for 48 hours. Panel D: BT activity in macrophage-conditioned media from NZB/W F1 (NZ) or C57BL (BL). […]
(§1) Assays of Murine Cells. […] Splenocytes were counted using a hemochromocytometer, and plated at 2 million cells/ml on plastic 6-well Falcon tissue culture dishes (Becton Dickinson) in RPMI with 10% FCS. […]

A further assay deals with bone marrow macrophages. Description: Induction of D1L3 in cultured bone marrow macrophages (anti-D1L3 immunoblot, RDA, zymogram). The format is cell-based, C57BL mice. The note with it: 100 U/ml for the interferons. Here is the method:
FIG. 22. Normal and induced expression of D1L3 in murine macrophages. […] In anti-D1L3 blots of cell lysates, the protein is seen both as a ^˜34 kDa uncleaved molecule and a ^˜28 kDa cleaved molecule. […] Cells were plated on serum-coated tissue culture dishes and incubated overnight, the next morning, non-adherent cells (N) were rinsed vigorously with PBS 1×, and both adeherent (A) and non-adherent cells (N) from C57BL, NZB/W, BXSB, and MRL were lysed and immunoblotted with anti-D1L3. While the ^˜34 kDa size band consistent with uncleaved D1L3 is present in both adherent and non-adherent, the cleaved form (^˜28 kDa) is present almost exclusively in the adherent population of presumed macrophages. Also noticable are the higher levels of expression of D1L3 in the 3 latter lupus strains. Panel B: Untreated bone marrow macrophages from NZB/WF1 mice have a much higher baseline expression expression of D1L3 than C57BL macrophages.
Induction is present in macrophages from both strain though the absolute level of induction appears greater in C57BL than in the SLE-prone NZB/W F1 strain. NZB/W protein loads in Ifn-γ-negative lane is slightly underloaded relative to actin. Panel C: Bone marrow macrophages isolated from bone marrow (via adherence) from MRL and C57BL mice, and cultured for 2 days in vitro, were induced by Ifn-γ. […] No induction of D1L3, RDA-DNASE, or zymographic DNASE activity is evident upon tratement with 100 U/ml of Ifn-alpha. […] Panel D: Bone marrow macrophages from C57BL and MRL mice cultured for 7 days in the presence of GM-CSF were induced with Ifn-γ, again showing the higher baseline levels of 28 kDa enzyme in the lupus prone strain, and in C57BL showing induction of levels aftern Ifn-γ. […]
as §1
On the technique in general: A western blot detects proteins with antibodies after separation by electrophoresis.

Another assay deals with HeLa cells. Description: BT assay: liposomal N1-eGFP transfection of HeLa cells in DNASE-conditioned media, GFP immunoblot. The format is cell-based. As to conditions: equivalent doses of Ifn-γ, no macrophages.

As to “Ifn-γ: interferon-gamma (Genzyme), macrophage activator”, in assay [1], the “BT activity of media conditioned by treated macrophages” value is given as “confers BT; also recorded: Increased BT activity”. Further, the “induction of D1L3 in macrophages” value with bone marrow macrophages is “inducible; also recorded: significant induction of D1L3 levels”. Further, the “BT of HeLa cells treated with Ifn-γ or of media conditioned by them” value with HeLa cells is on record as “neither confer nor possess a BT”.
